PMC12038855, “Synthesis of 4-azido sialic acid for testing against Siglec-7 and in metabolic oligosaccharide engineering” (RSC Chemical Biology, 2025)

Molecular target: T1, Siglec-7 (Homo sapiens, UniProt Q9Y286)
T1 construct: gene SIGLEC7; recombinant Siglec-7-Fc soluble protein
Assay: concentration-independent native mass spectrometry (COIN-CaR-ESI-MS)
Assay type: binding

T1 sequence (Q9Y286 19-353 limits assumed): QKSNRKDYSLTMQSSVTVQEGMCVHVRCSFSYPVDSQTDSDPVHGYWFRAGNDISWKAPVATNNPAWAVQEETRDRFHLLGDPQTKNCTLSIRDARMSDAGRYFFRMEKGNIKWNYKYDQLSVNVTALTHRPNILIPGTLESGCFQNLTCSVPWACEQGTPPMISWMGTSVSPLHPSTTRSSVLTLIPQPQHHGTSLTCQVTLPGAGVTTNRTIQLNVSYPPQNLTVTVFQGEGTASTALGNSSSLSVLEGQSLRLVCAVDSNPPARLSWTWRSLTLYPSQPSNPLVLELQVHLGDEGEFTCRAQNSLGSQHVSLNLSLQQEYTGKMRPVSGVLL

Kd | Compound
115 ± 44 µM | CC(=O)N[C@H]1[C@@H](OCCNC(=O)OCc2ccccc2)O[C@H](CO)[C@H](O)[C@@H]1O[C@@H]1O[C@H](CO)[C@H](O)[C@H](O[C@]2(C(=O)O)C[C@H](N=[N+]=[N-])[C@@H](NC(C)=O)[C@H]([C@H](O)[C@H](O)CO)O2)[C@H]1O [compound 13, 2-(N-benzyloxycarbonylamino)ethyl 5-acetamido-4-azido-3,4,5 trideoxy-D-glycero-α-D-galacto-nonulopyranosyl-(2–3)-[β-D-galactopyranosyl]-(1–3)-2 acetamido-2-deoxy-α-D-galactopyranoside]
88 ± 31 µM | CC(=O)N[C@H]1[C@@H](OCCNC(=O)OCc2ccccc2)O[C@H](CO)[C@H](O)[C@@H]1O[C@@H]1O[C@H](CO)[C@H](O)[C@H](O[C@]2(C(=O)O)C[C@H](O)[C@@H](NC(C)=O)[C@H]([C@H](O)[C@H](O)CO)O2)[C@H]1O [compound 14, 2-(N-benzyloxycarbonylamino)ethyl 5 acetamido-3,5-dideoxy-D-glycero-α-D-galacto-nonulopyranosyl-(2–3)-[(β-D-galactopyranosyl)]-(1–3)-2-acetamido-2-deoxy-α-D-galactopyranoside]
